Measured values: article PMC12216609, “Inhibitors of eIF1A-ribosome interaction unveil uORF-dependent regulation of translation initiation and antitumor and antiviral effects” (The EMBO Journal, 2025)
Values joined by “and” are separate entries in the source; they are usually repeats but may differ in a detail not shown here. Equal entries are not always repeated. Where two headings read alike, the source gives them in different places.

Key:
eIF1A = target: T1, eIF1A (Homo sapiens, UniProt P47813); assay type: binding; settings: for fluorescence ratio, eIF1A: background-corrected, relative to DMSO or lowest 1Ai concentration, replicate columns
T1 construct: His-bdSUMO (cleaved yes); made in house; host or cells: E. coli BL-21
T1 sequence (P47813 whole entry): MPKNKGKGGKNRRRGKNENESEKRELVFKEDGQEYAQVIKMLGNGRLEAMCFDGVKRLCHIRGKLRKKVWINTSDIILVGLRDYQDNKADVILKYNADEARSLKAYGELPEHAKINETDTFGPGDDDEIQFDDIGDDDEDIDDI

RPS10 = target: T2, RPS10 (Homo sapiens, UniProt P46783); assay type: binding; settings: for RPS10 IC50: fluorescence binding
T2 construct: made in house; host or cells: E. coli BL-21

[1] = system: CUG/GUG vs AUG start codon luciferase reporters in HEK293T cells; assay: Near-cognate AUG starting codon fidelity reporter assay (GUG, CUG vs AUG); assay type: cell-based; settings: for CUG vs AUG (%): CUG start codon reporter relative to AUG reporter (AUG = 100); for CUG vs AUG (%) / GUG vs AUG (%): compound at 5uM (summary head), single-experiment calculation; for GUG vs AUG (%): GUG start codon reporter relative to AUG reporter (AUG = 100); for average CUG and GUG / average CUG and GUG relative to DMSO / CUG Average / GUG Average: NUG experiment; for CUG Average: CUG vs AUG reporter; for GUG Average: GUG vs AUG reporter; for NUG (Final data, Fig. 1E): average CUG and GUG relative to DMSO, 20 µM overnight; for GUG vs AUG data (%): individual repeat; for GUG vs AUG (%) Average: summary average of repeats, DMSO control average […]
[2] = system: cap-proximal AUG GFP reporter in HEK293T cells; assay type: cell-based; settings: GFP WB densitometry; 20 µM overnight; dmso 0.965946;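 note: ratio of upstream to downstream AUG initiation products on GFP Western blot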
[3] = system: IRF7 5'UTR firefly luciferase reporter in HEK293T cells; settings: for Reference vs IRF7 (Final data, Fig. 1E): 1/Result, relative to DMSO; for LONG (summary - All), normalized to DMSO: Long reporter; for LONG (summary - All), normalized to DMSO / SHORT (summary - All), normalized to DMSO: individual replicates, outliers excluded, DMSO = 1; for average ( long vs short ratio): summary - All;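 for all read-outs here: luciferase signal corrected by a co-transfected GFP reporter for transfection efficiency, read after overnight compound exposure, with Long and Short reporters differing in 5'UTR length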
[4] = summary table, fluorescence binding assay, read-out: IC50 concentration (µM), WT eIF1A
[5] = summary table, fluorescence binding assay

SMILES | fluorescence ratio, eIF1A (eIF1A; 1Ai conc. 0.25 uM) | fluorescence ratio, eIF1A (eIF1A; 1Ai conc. 0.5 uM) | fluorescence ratio, eIF1A (eIF1A; 1Ai conc. 1 uM) | fluorescence ratio, eIF1A (eIF1A; 1Ai conc. 2 uM) | fluorescence ratio, eIF1A (eIF1A; 1Ai conc. 4 uM) | fluorescence ratio, eIF1A (eIF1A; 1Ai conc. 8 uM) | fluorescence ratio, eIF1A (eIF1A; 1Ai conc. 16 uM) | fluorescence ratio, eIF1A (eIF1A; 1Ai conc. 32 uM) | fluorescence ratio, eIF1A (eIF1A; 1Ai conc. 64 uM) | fluorescence ratio, eIF1A (eIF1A; 1Ai conc. 256 uM) | RPS10 fluorescence ratio to control (RPS10; 1Ai conc. 0.25 uM) | RPS10 fluorescence ratio to control (RPS10; 1Ai conc. 0.5 uM) | RPS10 fluorescence ratio to control (RPS10; 1Ai conc. 1 uM) | RPS10 fluorescence ratio to control (RPS10; 1Ai conc. 2 uM) | RPS10 fluorescence ratio to control (RPS10; 1Ai conc. 4 uM) | RPS10 fluorescence ratio to control (RPS10; 1Ai conc. 8 uM) | RPS10 fluorescence ratio to control (RPS10; 1Ai conc. 16 uM) | RPS10 fluorescence ratio to control (RPS10; 1Ai conc. 32 uM) | RPS10 fluorescence ratio to control (RPS10; 1Ai conc. 64 uM) | RPS10 fluorescence ratio to control (RPS10; 1Ai conc. 256 uM) | other results
COc1cccc(Nc2nc(-c3ccc(NC(C)=O)cc3)c(C)s2)c1 [1Ai-1869] | 0.7968 and 0.7342 | 0.8838 and 0.7405 | 0.8128 and 0.72 | 1.007 and 0.8137 | 0.913 and 0.7844 | 0.7676 and 0.6709 | 0.6554 and 0.584 | 0.5701 and 0.4814 | 0.4848 and 0.4176 | 0.3469 and 0.3333 | 0.7198 | 0.6885 | 0.6476 | 0.5996 | 0.5488 | 0.4668 | 0.3725 | 0.2785 | 0.234 | 0.2345 | IC50 (eIF1A; eIF1A, from the titration data, read-out: IC50 (eIF1A titration block)): 20.4 µM; IC50 (eIF1A; [4]): 20.4 µM; IC50 (RPS10; read-out: IC50 (line under RPS10 binding data)): 7.7 µM; IC50 (RPS10; read-out: RPS10 IC50): 7.7 µM; IC50 (RPS10; summary table, fluorescence binding assay, read-out: IC50 concentration (µM), RPS10): 7.7 µM; CUG vs AUG (%) [1]: 5.139%; GUG vs AUG (%) [1]: 1.3841%; average CUG and GUG [1]: 3.262; average CUG and GUG relative to DMSO [1]: 0.7232; CUG Average [1]: 5.139; GUG Average [1]: 1.3841; NUG (Final data, Fig. 1E) [1]: 0.723; GUG vs AUG data (%) ([1]; compound at 5uM): 2.01% and 1.38%; GUG vs AUG (%) Average ([1]; compound at 5uM): 1.70%; US/DS ratio, average [2]: 1.144; Reference vs IRF7 (Final data, Fig. 1E) ([3]; 20 µM): 1.329; LONG (summary - All), normalized to DMSO ([3]; 5 µM): 0.51 and 0.25 and 0.61; SHORT (summary - All), normalized to DMSO ([3]; Short reporter, 5 µM): 0.54 and 0.69 and 0.59; Short: Normalized to average DMSO ([3]; data section, Short reporter, GFP-corrected, 5 µM, per experiment, includes values excluded as outliers): 0.5397 and 0.69 and 0.5937; average ( long vs short ratio) ([3]; 5 µM): 0.752
Oc1cc(Cl)ccc1Oc1ccc(Cl)cc1Cl [1Ai-6248] | 0.9384 and 1.064 | 0.9722 and 1.055 | 1.006 and 1.027 | 0.9417 and 1.0128 | 0.9205 and 0.9547 | 0.8204 and 0.8224 | 0.7985 and 0.7888 | 0.7283 and 0.6891 | 0.6123 and 0.5776 | 0.937 and 1.038 | 1.015 | 0.9639 | 0.9786 | 0.9545 | 0.9327 | 0.7864 | 0.7439 | 0.7362 | 0.7781 | 1.057 | WT eIF1A IC50 (eIF1A; fluorescence binding): No binding; IC50 concentration (µM), WT eIF1A (eIF1A; [5]): No binding; RPS10 IC50 (RPS10): No binding; IC50 concentration (µM), RPS10 (RPS10; [5]): No binding; CUG vs AUG (%) [1]: 9.031% and 6.716%; GUG vs AUG (%) [1]: 1.808% and 1.909%; average CUG and GUG [1]: 4.51; average CUG and GUG relative to DMSO [1]: 1; CUG Average [1]: 7.441; GUG Average [1]: 1.579; NUG (Final data, Fig. 1E) [1]: 1.000; GUG vs AUG data (%) ([1]; compound at 5uM): 1.28% and 2.36% and 1.32% and 1.37%; GUG vs AUG (%) Average ([1]; compound at 5uM): 1.58%; US/DS ratio, average [2]: 1.042; Reference vs IRF7 (Final data, Fig. 1E) ([3]; 20 µM): 2.307; LONG (summary - All), normalized to DMSO ([3]; 5 µM): 0.82 and 0.51 and 0.33 and 0.43; SHORT (summary - All), normalized to DMSO ([3]; Short reporter, 5 µM): 0.71 and 0.90 and 0.20; average ( long vs short ratio) ([3]; 5 µM): 0.861
CCOc1cc(C(=O)Nc2ccc(Cl)c(-c3nc4ccccc4[nH]3)c2)cc(OCC)c1OCC [1Ai-5677] | 0.8378 and 0.9597 | 0.7937 and 0.9656 | 0.9644 and 1.01 | 1.084 and 0.9877 | 1.028 and 1.008 | 0.9744 and 0.9518 | 1.11 and 0.9262 | 1.565 and 1.017 | 1.663 and 1.113 | 1.623 and 1.122 | 1.185 | 1.207 | 1.132 | 1.142 | 1.154 | 1.116 | 1.16 | 1.234 | 1.307 | 1.29 | IC50 (eIF1A; [4]): 24.8 µM; RPS10 IC50 (RPS10): No binding; IC50 concentration (µM), RPS10 (RPS10; [5]): No binding; average CUG and GUG [1]: 7.022; average CUG and GUG relative to DMSO [1]: 1.557; CUG Average [1]: 10.2182; GUG Average [1]: 3.825; NUG (Final data, Fig. 1E) [1]: 1.557; GUG vs AUG data (%) ([1]; compound at 20uM): 5.33% and 3.23% and 3.12% and 3.62%; GUG vs AUG (%) Average ([1]; compound at 20uM): 3.82%; US/DS ratio, average [2]: 0.4981; Reference vs IRF7 (Final data, Fig. 1E) ([3]; 20 µM): 1.223; LONG (summary - All), normalized to DMSO ([3]; 20 µM): 0.42 and 0.28 and 0.29 and 0.61; SHORT (summary - All), normalized to DMSO ([3]; Short reporter, 20 µM): 0.22 and 0.81 and 0.72 and 0.21; Long 5'UTR reporter luciferase activity, normalized to DMSO (=1), single replicates ([3]; compound at 20 µM, left data block (Long), source data of Fig 1C): 0.4235 and 0.2817 and 0.2949 and 0.6069; average ( long vs short ratio) ([3]; 20 µM): 0.817
